In patent US20240408087A1, “TRPC6 INHIBITORY COMPOUNDS FOR TREATING SEPSIS” (Boehringer Ingelheim International GmbH, priority 2021, published 2024):

Assays:
[1] = system: mouse CLP model; test: Acute model of CLP: vascular hyper-permeability (Evans blue extravasation); format: in vivo
Method: Cecal ligation puncture (CLP) is a model of polymicrobial sepsis which consists of extruding fecal content in the abdominal cavity of the animals under anesthesia.
(§1) Two models were performed: • Acute model of CLP lasting 24 h to measure vascular hyper-permeability in lung, liver, kidney and heart tissue. The vascular hyper-permeability was followed by the extravasation of Evans blue injected intravenously and diffused and accumulated into the tissue. The vascular hyper-permeability was expressed as μg of Evans blue in 100 mg of dry tissue. • Chronic model of CLP lasting 8 days. CLP is performed on day 0 and the survival rate is followed for 8 consecutive days.
(§2) Mice were anesthetized with ketamine (80 mg kg^−1, i.p.) and xylazine (10 mg kg^−1, i.p.). A 1-1.5 cm abdominal midline incision was made, and the caecum was located and tightly ligated at half the distance between distal pole and the base of the caecum with 4-0 silk suture (mild grade). The caecum was punctured through-and-through once with a 21-gauge needle after medium ligation. A small amount of stool was extruded to ensure that the wounds were patent. Then the cecum was replaced in its original position within the abdomen, which was closed with sutures in layers. For negative control animals, a sham surgery was performed: sham-operated animals underwent identical laparotomy but without cecal ligation or puncture. The animals were resuscitated immediately after surgery with 1 mL subcutaneous normal saline and returned to their cages. Experiment was terminated at 24 hrs after CLP.
10 mice were included in each group.
Evans blue dye (0.1 mL at 40 mg/kg) was injected through each tail vein 30 minutes before euthanasia at 24 hours after CLP. Lung, kidney, liver and heart tissues are collected, and Evans blue was extracted in Formamide. The concentration of the Evans blue dye was calculated from a standard curve and expressed as μg/100 mg lung dry tissue. The data were analyzed by using commercially available software (Prism, version 8.3.0; GraphPad Software Inc., San Diego, CA). Different groups were compared with the one-way variance analysis (ANOVA) followed by the Dunnett test (e.g CLP group compared to treated groups). All data were expressed as a mean±SEM. The limit of the significance was taken as p values less than 0.05 (p<0.05).

[2] = system: mouse CLP model; test: Chronic model of CLP: survival rate; format: in vivo
Method: as §1
as §2, with “On day 0, mice” for “Mice”, “cages.” for “cages. Experiment was terminated at 24 hrs after CLP.”
Compound 2 of WO 2019/161010 or its vehicle (0.5% natrosol 0.010% Tween 80) was given orally (5 ml/kg) at 30 mg/kg 2 h after CLP and once daily from day 1 to day 6. Adrecizumab, anti-adrenomedullin antibody, was given at 4 mg/kg i.v. only once, 1 h before CLP. 10 mice were included in each group.
In a second experiment, Compound 17 or its vehicle (0.5% natrosol 0.010% Tween 80) was given orally (5 ml/kg). Compound 17 was given at 10 mg/kg in two groups. In the first group, Compound 17 was given at 2 h after CLP and twice daily from day 1 to day 6. In the second group, Compound 17 was given at 24 h after CLP and twice daily from day 2 to day 6. 10 mice were included in each group.

[3] = target: T1, TRPC6 (Homo sapiens, UniProt Q9Y210); test: in vitro Patch Clamp; format: cell-based
T1 sequence (Q9Y210 1-931): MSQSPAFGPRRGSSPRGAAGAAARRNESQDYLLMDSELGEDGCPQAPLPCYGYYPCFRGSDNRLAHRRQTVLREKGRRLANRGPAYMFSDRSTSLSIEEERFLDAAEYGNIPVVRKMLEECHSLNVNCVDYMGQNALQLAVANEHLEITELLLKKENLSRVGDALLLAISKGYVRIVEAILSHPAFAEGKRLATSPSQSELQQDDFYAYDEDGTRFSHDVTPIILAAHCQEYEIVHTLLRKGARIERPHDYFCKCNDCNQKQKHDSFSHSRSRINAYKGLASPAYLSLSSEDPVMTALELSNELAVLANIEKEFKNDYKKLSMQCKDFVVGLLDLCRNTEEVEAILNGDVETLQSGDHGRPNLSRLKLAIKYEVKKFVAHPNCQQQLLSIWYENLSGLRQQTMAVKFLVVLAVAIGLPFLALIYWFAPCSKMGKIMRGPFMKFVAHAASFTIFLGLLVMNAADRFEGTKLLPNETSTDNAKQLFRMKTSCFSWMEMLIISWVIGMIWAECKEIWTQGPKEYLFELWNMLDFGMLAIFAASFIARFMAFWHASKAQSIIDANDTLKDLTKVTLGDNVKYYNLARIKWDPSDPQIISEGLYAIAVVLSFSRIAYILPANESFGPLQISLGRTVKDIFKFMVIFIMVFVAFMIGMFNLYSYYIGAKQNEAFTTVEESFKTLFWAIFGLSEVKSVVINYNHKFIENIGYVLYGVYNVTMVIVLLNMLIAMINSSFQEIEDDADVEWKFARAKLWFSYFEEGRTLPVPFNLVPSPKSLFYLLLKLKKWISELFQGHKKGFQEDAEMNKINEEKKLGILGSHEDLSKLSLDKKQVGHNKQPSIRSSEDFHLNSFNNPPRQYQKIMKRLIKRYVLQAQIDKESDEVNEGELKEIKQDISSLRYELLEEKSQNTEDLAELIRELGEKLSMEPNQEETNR

[4] = system: LPS aerosol induced lung edema; test: LPS-induced vascular leakage in a mouse model (BALF total protein); format: in vivo; details: 4 h after LPS, average of two experiments
Method: Mice are placed in a chamber and exposed to Lipopolysaccharide (LPS, known as endotoxin and found in outer membrane of Gram-negative bacteria such as Escherichia Coli) aerosol (0.8 mg/ml) for 30 min (or Phosphate-Buffered Saline, PBS as vehicle). The TRPC6 inhibitor compound 17 is given orally 12 h and 2 h before LPS challenge. The mice are euthanized 4 h after the end of the LPS aerosol exposure. Blood is collected for plasma exposure of the compound and the lungs are flushed with 0.8 ml PBS. The broncho-alveolar-lavage is centrifuged at 500 revolutions/min for 10 min and the supernatant is collected for the measurement of total protein according to Lowry measurement by absorbance at 660 nm. The mouse LPS experiment is repeated twice, and the data of each experiment are represented in FIG. 3.1 for the first experiment and FIG. 3.2 for the second experiment. FIG. 3.3 represents the average of the two experiments expressed in percent of the LPS group.
LPS aerosol induced lung edema is characterized by a significant accumulation of Broncho-Alveolar-Lavage protein (BALF protein). […]
FIG. 3.1 and FIG. 3.2 show the amount and FIG. 3.3 the percent of total protein in BALF (Broncho Alveolar Lavage Fluid) after LPS (LipoPolySaccharide) treatment without or after pretreatment with (+) compound 17 as evaluated along the following tabular scheme

[5] = Example 1, prophylactic mode, 30 mg/kg orally 2 h before and 8 h after CLP
[6] = Example 1, therapeutic mode, 30 mg/kg orally 2 h and 8 h after CLP
[7] = Example 2, 30 mg/kg orally, therapeutic mode 2 and 8 h after CLP
[8] = Example 2, 10 mg/kg orally, therapeutic mode 2 and 8 h after CLP

## Nc1ccc(C2CCN(C(=O)c3ccc(Oc4ccc(C(F)(F)F)cc4)cc3)CC2)nn1 [Compound 2 of WO 2019/161010]
[1]; Example 1, heart, therapeutic mode, 30 mg/kg orally 2 h and 8 h after CLP
  inhibition of Evans blue concentration in heart: 94%
[1]; [5]
  inhibition of Evans blue concentration in kidney: 84%
  inhibition of Evans blue concentration in liver: 71%
[1]; [6]
  inhibition of Evans blue concentration in kidney: 98%
  inhibition of Evans blue concentration in liver: 88%
[1]; Example 1, lung, prophylactic mode, 30 mg/kg orally 2 h before and 8 h after CLP, 24 h after CLP
  inhibition of Evans blue concentration in lung: 87%
[1]; Example 1, lung, therapeutic mode, 10 mg/kg orally 2 h and 8 h after CLP, 24 h after CLP
  inhibition of Evans blue concentration in lung: 87%
[1]; Example 1, lung, therapeutic mode, 30 mg/kg orally 2 h and 8 h after CLP, 24 h after CLP
  inhibition of Evans blue concentration in lung: 100%
[1]; Example 2, heart, 30 mg/kg orally, therapeutic mode 2 and 8 h after CLP
  reduction of Evans blue concentration in heart: 100%
[1]; [7]
  reduction of Evans blue concentration in kidney: 90%
  reduction of Evans blue concentration in liver: 58%
[1]; Example 2, lung, 30 mg/kg orally, therapeutic mode 2 and 8 h after CLP
  reduction of Evans blue concentration in lung tissue: 94%
[2]; first experiment, 30 mg/kg orally 2 h after CLP and once daily from day 1 to day 6
  survival rate at day 8: 50%
[2]; first experiment, day 8
  survival rate compared with adrecizumab: significantly superior to adrecizumab survival rate

## COc1cc(C(=O)N2CCC(c3ccc(N)nn3)CC2)ncc1Oc1ccc(F)cc1 [Compound 17, [4-(6-Amino-pyridazin-3-yl)-piperidin-1-yl]-[5-(4-fluoro-phenoxy)-4-methoxy-pyridin-2-yl]-methanone]
[1]; Example 2, heart, 3 mg/kg orally, therapeutic mode 2 and 8 h after CLP
  reduction of Evans blue concentration in heart: 100%
[1]; Example 2, heart, 10 mg/kg orally, therapeutic mode 2 and 8 h after CLP
  reduction of Evans blue concentration in heart: 120%
[1]; [8]
  reduction of Evans blue concentration in kidney: 95%
  reduction of Evans blue concentration in liver: 48%
[1]; Example 2, lung, 1 mg/kg orally, therapeutic mode 2 and 8 h after CLP
  inhibition of Evans blue concentration in lung: 65%
[1]; Example 2, lung, 3 mg/kg orally, therapeutic mode 2 and 8 h after CLP
  inhibition of Evans blue concentration in lung: 90%
[1]; Example 2, lung, 10 mg/kg orally, therapeutic mode 2 and 8 h after CLP
  inhibition of Evans blue concentration in lung: 100%
[1]; summary of FIGS. 2.1 to 2.4 (CLP) and FIGS. 3.1 to 3.3 (LPS)
  vascular leakage: significantly reduces vascular leakage
[3]
  IC50: 19 nM
  IC90: 104 nM
  in vitro Patch Clamp IC75: 48 nM
[4]; 3 mg/kg p.o. 12 h and 2 h before LPS aerosol
  reduction of BALF protein concentration: 56%
[4]; 10 mg/kg p.o. 12 h and 2 h before LPS aerosol
  reduction of BALF protein concentration: 62%
[2]; second experiment, 10 mg/kg orally at 2 h after CLP and twice daily from day 1 to day 6
  survival rate at day 8: 60%
[2]; second experiment, 10 mg/kg orally at 24 h after CLP and twice daily from day 2 to day 6
  survival rate at day 8: 50%

## Adrecizumab: anti-adrenomedullin antibody
[2]; first experiment, 4 mg/kg i.v. only once, 1 h before CLP
  survival rate at day 8: 30%
